Results on six compounds are retold here after ChEMBL document CHEMBL4715917 (Bioorg Med Chem, 2021).

One assay relates to A549. Kind of assay: Cytotoxicity against human A549 cells harboring wild type EGFR assessed as reduction in cell viability after 72 hrs by MTT assay. The settings on record: A549, 72 h. It is filed as functional, cell-based. (Tetrazolium dyes change colour on reduction, which living cells bring about.)
The test system of another assay is NCI-H1975. Briefly: Cytotoxicity against human NCI-H1975 cells harboring T790M/L858R mutant assessed as reduction in cell viability after 72 hrs by MTT assay. It is filed as functional, cell-based. The settings on record: NCI-H1975, 72 h.
Assay [1] concerns the target Epidermal growth factor receptor (Homo sapiens, UniProt P00533, L858R/T790M).
The target in assay [2] is Epidermal growth factor receptor (Homo sapiens, UniProt P00533).
Sequence of Epidermal growth factor receptor (Homo sapiens, UniProt P00533) (P00533 whole entry): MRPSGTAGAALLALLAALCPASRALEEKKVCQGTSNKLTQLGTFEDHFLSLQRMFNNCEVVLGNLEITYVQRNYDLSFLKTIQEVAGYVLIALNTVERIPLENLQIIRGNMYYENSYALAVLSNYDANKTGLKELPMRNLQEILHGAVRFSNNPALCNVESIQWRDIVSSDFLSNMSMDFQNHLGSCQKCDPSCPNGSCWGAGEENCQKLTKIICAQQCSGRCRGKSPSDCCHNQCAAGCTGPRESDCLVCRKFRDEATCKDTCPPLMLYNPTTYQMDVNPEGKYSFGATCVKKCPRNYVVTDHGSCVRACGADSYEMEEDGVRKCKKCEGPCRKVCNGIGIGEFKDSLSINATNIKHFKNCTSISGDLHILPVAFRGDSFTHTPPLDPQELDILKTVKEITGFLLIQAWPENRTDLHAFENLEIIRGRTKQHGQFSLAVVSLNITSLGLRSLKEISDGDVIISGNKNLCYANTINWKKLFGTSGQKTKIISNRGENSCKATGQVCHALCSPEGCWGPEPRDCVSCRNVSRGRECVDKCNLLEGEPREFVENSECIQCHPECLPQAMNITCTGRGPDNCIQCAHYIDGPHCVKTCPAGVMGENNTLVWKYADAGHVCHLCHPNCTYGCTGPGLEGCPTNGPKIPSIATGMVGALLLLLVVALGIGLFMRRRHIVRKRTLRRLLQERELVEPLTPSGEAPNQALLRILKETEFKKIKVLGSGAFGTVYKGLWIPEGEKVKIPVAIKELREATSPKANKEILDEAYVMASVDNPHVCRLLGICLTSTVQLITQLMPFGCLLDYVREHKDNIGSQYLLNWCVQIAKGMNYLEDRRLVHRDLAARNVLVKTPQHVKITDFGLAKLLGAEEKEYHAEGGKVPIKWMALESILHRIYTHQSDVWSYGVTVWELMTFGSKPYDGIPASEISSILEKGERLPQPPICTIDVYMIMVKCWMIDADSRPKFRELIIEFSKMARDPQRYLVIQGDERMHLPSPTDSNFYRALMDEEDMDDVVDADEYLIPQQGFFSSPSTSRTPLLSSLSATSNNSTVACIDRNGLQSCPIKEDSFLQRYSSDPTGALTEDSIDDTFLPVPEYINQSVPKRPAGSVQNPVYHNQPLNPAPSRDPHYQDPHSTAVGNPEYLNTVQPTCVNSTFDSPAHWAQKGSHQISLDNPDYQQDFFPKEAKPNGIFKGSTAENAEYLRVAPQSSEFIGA
Description: Inhibition of recombinant wild type EGFR (696 to C terminal end) (unknown origin) using poly (Glu-Tyr) as substrate preincubated for 30 mins followed by substrate addition and measured after 30 mins by ELISA

Sequence of Epidermal growth factor receptor (Homo sapiens, UniProt P00533, L858R/T790M) (P00533 25-1210 T790M/L858R limits assumed): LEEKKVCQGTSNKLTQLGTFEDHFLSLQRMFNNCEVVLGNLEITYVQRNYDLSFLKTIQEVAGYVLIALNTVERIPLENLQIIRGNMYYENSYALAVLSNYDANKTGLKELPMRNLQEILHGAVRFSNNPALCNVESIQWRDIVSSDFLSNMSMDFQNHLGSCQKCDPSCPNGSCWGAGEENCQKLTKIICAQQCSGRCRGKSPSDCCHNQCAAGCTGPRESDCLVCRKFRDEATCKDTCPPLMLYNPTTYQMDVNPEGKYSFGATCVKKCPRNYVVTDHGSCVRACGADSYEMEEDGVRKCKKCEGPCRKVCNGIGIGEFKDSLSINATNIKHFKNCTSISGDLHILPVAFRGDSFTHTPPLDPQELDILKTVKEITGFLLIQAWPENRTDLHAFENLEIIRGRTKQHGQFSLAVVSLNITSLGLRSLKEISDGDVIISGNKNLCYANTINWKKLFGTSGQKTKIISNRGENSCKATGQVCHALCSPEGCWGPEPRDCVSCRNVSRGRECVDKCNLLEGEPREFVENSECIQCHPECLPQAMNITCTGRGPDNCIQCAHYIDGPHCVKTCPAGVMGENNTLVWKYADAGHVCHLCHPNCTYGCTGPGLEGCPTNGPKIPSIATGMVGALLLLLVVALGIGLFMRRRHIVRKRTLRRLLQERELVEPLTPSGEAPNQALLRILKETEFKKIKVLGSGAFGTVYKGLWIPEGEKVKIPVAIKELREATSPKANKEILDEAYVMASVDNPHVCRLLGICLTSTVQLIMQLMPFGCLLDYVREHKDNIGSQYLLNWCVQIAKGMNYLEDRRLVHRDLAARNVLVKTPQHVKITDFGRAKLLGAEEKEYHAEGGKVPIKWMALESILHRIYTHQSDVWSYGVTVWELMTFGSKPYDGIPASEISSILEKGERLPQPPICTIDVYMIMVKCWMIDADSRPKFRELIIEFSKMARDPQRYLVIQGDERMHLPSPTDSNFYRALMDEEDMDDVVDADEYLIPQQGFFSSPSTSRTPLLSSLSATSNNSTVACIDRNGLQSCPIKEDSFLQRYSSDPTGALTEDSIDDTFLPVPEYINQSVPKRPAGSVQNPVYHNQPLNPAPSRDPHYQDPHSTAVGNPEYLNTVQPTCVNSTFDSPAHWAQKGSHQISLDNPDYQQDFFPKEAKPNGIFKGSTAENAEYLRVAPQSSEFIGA

A word on the IC50: it is the concentration at which inhibition is half-maximal. Regarding `COc1ccc(-c2c3c4cc(OC)c(O)cc4[nH]c(=O)c3n3ccc4cc(O)c(OC)cc4c23)cc1O`, the 50% inhibitory concentration (IC50) with A549 was determined as 0.0155 µM; in the assay on NCI-H1975, 0.0019 µM.

As for `COc1ccc(-c2c3c4cc(OC)c(OCCCN(C)C)cc4[nH]c(=O)c3n3ccc4cc(O)c(OC)cc4c23)cc1O`, the IC50 was determined as 0.0057 µM in assay [1], 0.0155 µM in assay [2], 1.04 µM with A549 and 0.35 µM in the assay with NCI-H1975.

For the compound `COc1ccc(-c2c3c4cc(OCCCN(C)C)c(O)cc4[nH]c(=O)c3n3ccc4cc(O)c(OC)cc4c23)cc1O`, the IC50 in assay [1] was found to be 0.0166 µM; in assay [2], 0.0236 µM.

As for `COc1ccc(-c2c3c4cc(O)c(OCCCN(C)C)cc4[nH]c(=O)c3n3ccc4cc(O)c(OC)cc4c23)cc1O`, the IC50 was found to be 0.0102 µM in assay [1] and 0.0247 µM in assay [2].

For `COc1ccc(-c2c3c4cc(OCCCN(C)C)c(OCCCN(C)C)cc4[nH]c(=O)c3n3ccc4cc(O)c(OC)cc4c23)cc1O`, the IC50 in assay [1] was 0.0017 µM; in assay [2] it was 0.0046 µM; in the assay with A549, 2.04 µM; with NCI-H1975, 1.36 µM.

On to `COc1ccc(-c2c3c4cc(OC)c(OC)cc4[nH]c(=O)c3n3ccc4cc(O)c(OC)cc4c23)cc1O`, for which the half-inhibitory concentration (IC50) in assay [1] is 0.0653 µM; in assay [2] it was 0.259 µM.
